# Experimental data taken from patent publication US20180000768A1, “INTESTINAL FXR AGONISM ENHANCES GLP-1 SIGNALING TO RESTORE PANCREATIC BETA CELL FUNCTIONS” (Salk Institute for Biological Studies, priority 2015, published 2018).
# Key:
# [1] = tested on: isolated islets; assay: gene expression after direct ex vivo treatment of isolated islets; format: cell-based, mouse; conditions: 24 hours ex vivo, XL335 1 μM, Fex 1 μM
# Protocol: Leptin-deficient ob/ob mice were treated daily with vehicle, Fex, or the analogue Fex-D (50 mg/kg) via P.O. for 14 days (A) Chemical structures of fexaramine and Fex-D (B) Schematic of the experimental design (C) Serum glucose levels (D) Glucose tolerance test (E) Insulin secretion in vivo (F) GLP-1 secretion in vivo (G) Heatmap showing hierarchal clustering of gene expression changes in islet induced by Fex (100 mg/kg, 4 wks) and FexD (50 mg/kg, 2 weeks) treatment in ob/ob mice (in vivo); by treatment of islets with XL335 (1 μM), Fex (1 μM), mFgf15 and hFgf19 (24 hours ex vivo); and mFgf15 (0.15 mg/kg, 2 weeks) and INT777 (Tgr5, 60 mg/kg, 4 weeks) treatment of ob/ob mice (in vivo). Gene expression was measured by RNA-Seq and changes are expressed as Z-score. (H) Ven diagram of changes in gene expression in pancreatic islets induced by FEX (100 mg/kg for 5 weeks) and FEX-D (50 mg/kg for 14 days). […] Data represent the mean±STD. Statistical analysis was performed with the Student's t test. *p<0.05, **p<0.01.
# Next, primary islets were isolated from mice treated by Fex-D to compare gene expression changes.
# [2] = tested on: human enteroendocrinal L cells (NCI-H716); assay: In vitro GLP-1 secretion assay; format: cell-based; conditions: L cells pretreated with compound
# Protocol: In vitro GLP-1 secretion assay was performed in human enteroendocrinal L cells (NCI-H716). For each secretion assay, cells were seeded at 1×10^5 cells/ml (1 ml/well) in a matrigel-coated 24-well plate. Prior to GLP-1 secretion assay, cells were pre-treated with DMSO, 1 μM Fex, or 1 μM Fex-D overnight. Cells were deprived in Krebs buffer (with 0.1% BSA) with dipeptidyl peptidase (DPP)-4 inhibitor ([…] sitagliptin). GLP-1 was measured with a commercial kit (EZGLP1T-36K, Millipore). For in vivo GLP-1 secretion, each animal was gavaged with 25 mg per kg of body weight sitagliptin 60-minutes before glucose load. Blood was collected from the tail vein at the indicated intervals, and transferred to serum collection tubes containing sitagliptin.
# [3] = tested on: ob/ob mice; assay: gene expression (RNA-Seq, QPCR) in tissues of treated ob/ob mice; format: in vivo, mouse; conditions: INT-777 60 mg/kg P.O. for 5 weeks
# Protocol: Total RNA was isolated from cell pellets treated with RNAlater using the RNA mini kit (Qiagen) and treated with DNaseI (Qiagen) for 30 minutes at room temperature. Sequencing libraries were prepared from 100-500 ng total RNA using the TruSeq RNA Sample Preparation Kit v2 (Illumina) according to the manufacturer's protocol. Briefly, mRNA was purified, fragmented, and used for first-, then second-strand cDNA synthesis followed by adenylation of 3′ ends. Samples were ligated to unique adapters and subjected to PCR amplification. Mulitplexed libraries were then validated using the 2100 BioAnalyzer (Agilent), normalized, and pooled for sequencing. RNA-Seq libraries prepared from two biological replicates for each experimental condition were sequenced on the Illumina HiSeq 2500 using bar-coded multiplexing and a 100 bp read length.
# Image analysis and base calling were performed with Illumina CASAVA-1.8.2. This yielded a median of 29.9M usable reads per sample. Short read sequences were mapped to a UCSC mm9 reference sequence using the RNA-seq aligner STAR. Known splice junctions from mm9 were supplied to the aligner and de novo junction discovery was also permitted. Differential gene expression analysis, statistical testing and annotation were performed using Cuffdiff 2. Transcript expression was calculated as gene-level relative abundance in fragments per kilobase of exon model per million mapped fragments and employed correction for transcript abundance bias. RNA-Seq results for genes of interest were also explored visually using the UCSC Genome Browser.
# [4] = tested on: enteroendocrinal L cells; assay: Gene expression analysis (QPCR) in enteroendocrinal L cells; format: cell-based, human
# [5] = in vitro; conditions: human
# [6] = in vitro permeability in Caco2 cells; conditions: human; for Papp A→B at 2 h, 10 μM: Caco2 cells, assay conc. 10 μM
# [7] = tested on: pancreatic islets from ob/ob mice; assay: Insulin secretion assay on isolated pancreatic islets (ex vivo); format: cell-based, mouse; conditions: islets, 100 nM Exendin-4
# Protocol: Mouse pancreatic islets were isolated from ob/ob mice according to a method used for rats traditionally. Briefly, 0.5 mg/ml collagenase P (Roche) diluted in HBSS buffer was injected through the common bile duct and the perfused pancreas was dissected and incubated in water bath with 37° C. for 21 minutes. Digested exocrine cells and intact islets were separated using Histopaque-1077 (SIGMA) with centrifugation by 900 g for 15 minutes and intact islets were picked up manually.
# Insulin release from intact islets was monitored using batch incubation methods.
# Isolated pancreatic islets were cultured over-night with […] supplemented with 10% (v/v) fetal bovine serum and 1% (v/v) Antibiotics-antimycotic solution, were pre-cultured at 37° C. for 30 minutes in Krebs Ringer bicarbonate buffer (KRBH) containing 129.4 mM NaCl, 3.7 mM KCl, 2.7 mM CaCl2, 1.3 mM KH2PO4, 1.3 mM MgSO4, 24.8 mM NaHCO3 (equilibrated with 5% CO2, 95% O2, pH7.4), 10 mM HEPES and 0.2% (v/v) BSA (fraction V) with 3 mM glucose. N ext, the pancreatic islets were incubated for 30 minutes KRBH buffer (500 μl/10 islets) with 3 mM or 20 mM glucose with or without 100 nM Exendin-4 to determine insulin secretion levels. At the end of the incubation period, islets were pelleted by centrifugation, and aliquots of the buffer were sampled. The amounts of insulin were determined by Rat/mouse Insulin ELISA KIT (Millipore) for mice islets.
# [8] = tested on: NCI-H716 cells; assay: Extracellular oxygen consumption rate assay (Seahorse XF96); format: cell-based, human
# Protocol: Briefly, NCI-H716 cells were seeded in XF 96-well cell culture microplates (Seahorse Bioscience) at 6.0×10^4 cells per well in 150 μl of growth medium and then incubated at 37° C./5% CO2 for 24 hr. A Seahorse Bioscience instrument model XF96 was used to measure the rate of change of dissolved oxygen in the media surrounding the cells. All procedures followed manufacturer's instructions. […] Conversely, treatment with the FXR antagonist guggulsterone reduced basal respiratory rates and the FCCP-induced maximum respiration rate (FIGS. 9A and 9B). To examine the effects of FXR activity on the secretion of GLP-1, the metabolic changes induced in human L cells was measured after treatment with the FXR agonist, fexaramine and an FXR antagonist, guggulsterone. Treatment of L cells with fexaramine (1 μM for 24 hours) lead to an increase in the oxygen consumption rate (OCR), consistent with increased mitochondrial activity and consequently, an increased energetic state (FIG. 9A). The reverse effect was seen after treatment with the FXR antagonist, guggulsterone, with lower OCR after drug treatment.
# [9] = Caco-2, A-B Permeability Ranking
# [10] = Caco-2, Mean Papp, A-B, 2 hour incubation
"Papp B→A at 2 h, 10 μM ([6]; Caco-2) [×10⁻⁶ cm/s]","recovery at 2 h, 10 μM ([6]; Caco-2) [%]","Papp A→B at 2 h, 10 μM [6, 9] [×10⁻⁶ cm/s]","Papp A→B at 2 h, 10 μM [6, 10] [×10⁻⁶ cm/s]",Molecule,also measured
–,–,–,–,CC(C)OC(=O)C1=CN(C(=O)c2ccc(F)c(F)c2)CC(C)(C)c2c1[nH]c1ccccc21 [XL335],transcriptional changes seen in islets in vivo with Fex and Fex-D [1]: not observed
–,–,–,–,CC[C@H]1[C@@H](O)[C@@H]2[C@H](C[C@H](O)[C@]3(C)[C@@H]([C@H](C)C[C@H](C)C(=O)O)CC[C@@H]23)[C@@]2(C)CC[C@@H](O)C[C@@H]12 [INT-777],GLP-1 secretion in response to a glucose challenge [2]: increased; expression of the GLP-1 receptor in islets [3]: significantly increased; SHP expression (FXR target gene) [4]: not; proglucagon expression [4]: selectively induced
–,–,–,–,CC(=O)CC(c1ccccc1)c1c(O)c2ccccc2oc1=O (stereo not shown) [Warfarin],"Papp B→A at 2 h, 10 μM ([5]; Caco-2): 29.8 ×10⁻⁶ cm/s; efflux ratio at 2 h, 10 μM ([5]; Caco-2): 0.695; recovery at 2 h, 10 μM ([5]; Caco-2): 101%; Papp A→B at 2 h, 10 μM [5, 9]: > 1 ×10⁻⁶ cm/s; Papp A→B at 2 h, 10 μM ([5]; Caco-2, Mean Papp, A-B): 42.8 ×10⁻⁶ cm/s"
0.23,192,< 1,0.0294,[2H]C(c1ccc(-c2ccc(N(C)C)cc2)cc1)N(C(=O)[C@@H]1C[C@@H]2CC[C@H]1C2)c1cc(F)cc(/C=C/C(=O)OC)c1 (stereo partly shown) [NSSK 00024],–
–,–,–,–,Exendin-4: GLP-1 agonist,ex vivo insulin secretion in presence of GLP-1 agonist [7]: further potentiated
0.922,92.7,< 1,0.274,CNC(=C[N+](=O)[O-])NCCSCc1ccc(CN(C)C)o1 [Ranitidine],"efflux ratio at 2 h, 10 μM ([6]; Caco-2): 3.36"
0.0399,69.9,< 1,0.0104,[2H]C(c1ccc(-c2ccc3c(cnn3C)c2)cc1)N(C(=O)C1CCCCC1)c1cc(F)cc(/C=C/C(=O)OC)c1 (stereo not shown) [NSSK 00096],–
0.064,67.1,< 1,0.0962,[2H]C(c1ccc(-c2ccc3c(cnn3C)c2)cc1F)N(C(=O)C1CCCCC1)c1cccc(/C=C/C(=O)OC)c1 (stereo not shown) [NSSK 00089],–
–,–,–,–,C/C=C1\C(=O)C[C@H]2[C@@H]3CCC4=CC(=O)CC[C@]4(C)[C@H]3CC[C@]12C [guggulsterone],"basal respiratory rates and the FCCP-induced maximum respiration rate ([8]; L cells, guggulsterone 10 μM for 24 hr): reduced; oxygen consumption rate (OCR) ([8]; human L cells, 24 hours, fexaramine 1 μM, guggulsterone 10 μM): lower"
–,–,–,–,hFgf19: hFgf19 protein used for direct ex vivo treatment of isolated islets,transcriptional changes seen in islets in vivo with Fex and Fex-D [1]: not observed
